Key:
[1] = Solubility evaluation of diols containing an acid group in NMP or DPGDME; assay type: physicochemical; on Solubility, DMBA in DPGDGME (75° C.): key: An entry of 'Yes' indicates completely soluble; an entry of 'No' means not fully soluble; on Solubility, DMBA in NMP (25° C.): key: An entry of 'Yes' indicates completely soluble; an entry of 'No' means not fully soluble; on Solubility, DMPA in DPDGME (95° C.): key: An entry of 'Yes' indicates completely soluble; an entry of 'No' means not fully soluble; on Solubility, DMPA in NMP (25° C.): key: An entry of 'Yes' indicates completely soluble; an entry of 'No' means not fully soluble
Protocol: The solubility of certain diols containing an acid group (2,2-dimethylolpropionic acid (DMPA) and 2,2-dimethylolbutanoic acid (DMBA)) in dipropylene glycol dimethyl ether (DPGDME) and in N-methyl-2-pyrrolidone (NMP) are evaluated at different temperatures. The DPGDME used is PROGLYDE™ DMM (The Dow Chemical Company). The following concentrations with corresponding amounts of DMPA or DMBA and of solvent (DPGDME or NMP) are evaluated:
Using a 30 milliliter glass vial with a 24-mm black phenolic screw cap with poly seal liner from Fisher, the […] (DMBA or DMPA) is added at 5 wt. %, 10 wt. %, 15 wt. %, 20 wt. %, and 25 wt. % in the solvent (NMP or DPGDME) as specified in Table 1. Samples are heated on a high throughput heating/mixing station from 25° C. to 100° C. in 10° C. increments while mixing at 500 rpm with a magnetic stir bar. Samples are then removed an image is taken to record solubility.

[2] = animal testing; cited from earlier work

CCC(CO)(CO)C(=O)O [DMBA, 2,2-dimethylolbutanoic acid]
Solubility, DMBA in DPGDGME (75° C.) ([1]; 5 weight % in DPGDGME, 75° C.): Yes
Solubility, DMBA in NMP (25° C.) ([1]; 5 weight % in NMP): Yes
Solubility, DMBA in DPGDGME (75° C.) ([1]; 10 weight % in DPGDGME, 75° C.): Yes
Solubility, DMBA in NMP (25° C.) ([1]; 10 weight % in NMP): Yes
Solubility, DMBA in DPGDGME (75° C.) ([1]; 15 weight % in DPGDGME, 75° C.): Yes
Solubility, DMBA in NMP (25° C.) ([1]; 15 weight % in NMP): Yes
Solubility, DMBA in DPGDGME (75° C.) ([1]; 20 weight % in DPGDGME, 75° C.): Yes
Solubility, DMBA in NMP (25° C.) ([1]; 20 weight % in NMP): Yes
Solubility, DMBA in DPGDGME (75° C.) ([1]; 25 weight % in DPGDGME, 75° C.): Yes
Solubility, DMBA in NMP (25° C.) ([1]; 25 weight % in NMP): Yes
Solubility in DPGDME ([1]; 75° C.): fully dissolve
Solubility in both solvents tested (NMP and DPGDME) ([1]; all concentrations up to 25 weight %, varying temperatures): soluble

CC(CO)(CO)C(=O)O [DMPA, 2,2-dimethylolpropionic acid]
Solubility, DMPA in DPDGME (95° C.) ([1]; 5 weight % in DPDGME, 95° C.): No
Solubility, DMPA in NMP (25° C.) ([1]; 5 weight % in NMP): Yes
Solubility in DPGDGME ([1]; 5 weight %, 95° C.): not fully soluble
Solubility, DMPA in DPDGME (95° C.) ([1]; 10 weight % in DPDGME, 95° C.): No
Solubility, DMPA in NMP (25° C.) ([1]; 10 weight % in NMP): Yes
Solubility, DMPA in DPDGME (95° C.) ([1]; 15 weight % in DPDGME, 95° C.): No
Solubility, DMPA in NMP (25° C.) ([1]; 15 weight % in NMP): Yes
Solubility, DMPA in DPDGME (95° C.) ([1]; 20 weight % in DPDGME, 95° C.): No
Solubility, DMPA in NMP (25° C.) ([1]; 20 weight % in NMP): Yes
Solubility, DMPA in DPDGME (95° C.) ([1]; 25 weight % in DPDGME, 95° C.): No
Solubility, DMPA in NMP (25° C.) ([1]; 25 weight % in NMP): Yes
Solubility in DPGDME (overall) ([1]; in DPGDME): poor
Solubility in NMP ([1]; room temperature (25° C.), all concentrations up to 25 weight %, upon mixing in NMP): completely soluble

CN1CCCC1=O [NMP, N-methyl-2-pyrrolidone]
Reproductive toxicity [2]: shows reproductive toxicity
